Laboratory results taken from patent US11000033B2, “Ketone or oxime compound, and herbicide” (NISSAN CHEMICAL CORPORATION, priority 2014, dated 2021).

Key:
Assay type in all cases: in vivo
Veronica persica [1] = experiment: Test Example 5: herbicidal effect by foliage application, plastic box (symbol R); settings: 320 g/ha, 3 weeks after application
Method in brief: (§1)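 Seeds were sown in sterilized diluvial soil, covered with about 1.5 cm of soil and grown 14 days in a greenhouse at 25° C. to 30° C. An emulsifiable formulation diluted in water to a set rate was sprayed over foliage, and injury was scored 3 weeks later.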

rice plant = experiment: Test Example 5: effect on crop by foliage application, plastic box (symbol b); settings: 320 g/ha, 3 weeks after application
Method in brief: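 Crop and weed seeds sown in spots in sterilized diluvial soil in plastic boxes and covered with about 1.5 cm soil. Plants raised in a greenhouse at 25° C. to 30° C. for foliar application.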

Veronica persica [2] = experiment: Test Example 4: herbicidal effect by soil treatment (symbol R)
Method in brief: (§2)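 Seeds were sown in sterilized diluvial soil, covered with about 1.5 cm of soil, and the soil surface was sprayed with a water-diluted emulsion of the compound at a predetermined rate. Plants grew in a greenhouse at 25° C. to 30° C.; effects were scored visually 3 weeks after application.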

Monochoria vaginalis = experiment: Test Example 2: herbicidal activity, application during weed generation in submerged conditions (symbol C); settings: Table 23; application herbicide amount 320 g/ha; grade 0-5 by criteria of Test Example 1
Method in brief: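 Seeds sown in flooded alluvial soil (4 cm water) were grown in a 25-30° C greenhouse. At the one- to two-leaf stage, diluted emulsion of compound was applied to the water surface at a predetermined rate. Effect was scored 3 weeks later.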

[3] = system: Echinochloa crus-galli var. crus-galli; experiment: Test Example 3: herbicidal effect by foliage application, Wagner pot (symbol H); settings: application herbicide amount 320 g/ha
Method in brief: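 Plants sown in submerged alluvial soil (water depth 0.1–0.5 cm) in a 25–30 °C greenhouse and grown 14 days. An emulsion of the compound diluted in water to a set herbicide amount was sprayed uniformly on foliage. Effect on each plant scored 3 weeks after application.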

Digitaria ciliaris = experiment: Test Example 5: herbicidal effect by foliage application, plastic box (symbol F); settings: 320 g/ha, 3 weeks after application
Method in brief: as §1

Galium spurium = experiment: Test Example 5: herbicidal effect by foliage application, plastic box (symbol Q); settings: 320 g/ha, 3 weeks after application
Method in brief: as §1

Avena fatua = experiment: Test Example 4: herbicidal effect by soil treatment (symbol I)
Method in brief: as §2

Apera spica-venti = experiment: Test Example 4: herbicidal effect by soil treatment (symbol L)
Method in brief: as §2

rapeseed = experiment: Test Example 4: effect on crop by soil treatment (symbol g); settings: for g: rapeseed, effect on crop grade: application herbicide amount 320 g/ha
Method in brief: (§3)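 Steps: fill box with sterilized diluvial soil; sow seed spot-like; cover with ~1.5 cm soil; grow in greenhouse (25° C. to 30° C.).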

Stellaria media = experiment: Test Example 4: herbicidal effect by soil treatment (symbol P)
Method in brief: as §2

wheat = experiment: Test Example 4: effect on crop by soil treatment (symbol e); settings: for e: wheat, effect on crop grade: application herbicide amount 320 g/ha
Method in brief: as §3

[4] = application herbicide amount 320 g/ha

Row | SMILES | R: Veronica persica, herbicidal effect grade (Veronica persica [1]) | b: directly sowed rice plant, effect on crop grade (rice plant) | R: Veronica persica, herbicidal effect grade (Veronica persica [2]; [4]) | Herbicidal effect grade, C: Monochoria vaginalis (Monochoria vaginalis) | herbicidal effect on H (Echinochloa crus-galli var. crus-galli), grade 0-5 [3] | F: Digitaria ciliaris, herbicidal effect grade (Digitaria ciliaris) | Q: Galium spurium, herbicidal effect grade (Galium spurium) | I: Avena fatua, herbicidal effect grade (Avena fatua; [4]) | L: Apera spica-venti, herbicidal effect grade (Apera spica-venti; [4]) | g: rapeseed, effect on crop grade (rapeseed) | P: Stellaria media, herbicidal effect grade (Stellaria media; [4]) | e: wheat, effect on crop grade (wheat) | other results
1 | CON=C(C)C1CC(O)=C(c2c(C)cc(C)cc2C)C1=O (mixture of isomers) [3-002] | 0 (Herbicidal ratio of 5% or lower (almost no effect)) | 3 (Herbicidal ratio of 40% or higher and lower than 70%) | 0 (Herbicidal ratio of 5% or lower (almost no effect)) | 0 (Herbicidal ratio of 5% or lower (almost no effect)) | 0 (Herbicidal ratio of 5% or lower (almost no effect)) | 0 (Herbicidal ratio of 5% or lower (almost no effect)) | 0 (Herbicidal ratio of 5% or lower (almost no effect)) | 0 (Herbicidal ratio of 5% or lower (almost no effect)) | 0 (Herbicidal ratio of 5% or lower (almost no effect)) | 0 (Herbicidal ratio of 5% or lower (almost no effect)) | 0 (Herbicidal ratio of 5% or lower (almost no effect)) | 0 (Herbicidal ratio of 5% or lower (almost no effect)) | 
2 | CC#Cc1cc(C)c(C2=C(O)CC(CC(C)=NOC)C2=O)c(CC)c1 (mixture of isomers) [6-006] |  | 4 (Herbicidal ratio of 70% or higher and lower than 90%) | 2 (Herbicidal ratio of 20% or higher and lower than 40%) | 1 (Herbicidal ratio of 5% or higher and lower than 20%) | 5 (Herbicidal ratio of 90% or more (almost completely withered)) | 3 (Herbicidal ratio of 40% or higher and lower than 70%) | 0 (Herbicidal ratio of 5% or lower (almost no effect)) | 4 (Herbicidal ratio of 70% or higher and lower than 90%) | 5 (Herbicidal ratio of 90% or more (almost completely withered)) | 4 (Herbicidal ratio of 70% or higher and lower than 90%) | 0 (Herbicidal ratio of 5% or lower (almost no effect)) | 5 (Herbicidal ratio of 90% or more (almost completely withered)) | 
3 | CON=C(C)CC1CC(O)=C(c2c(C)cc(-c3cccc(Cl)c3)cc2C)C1=O (mixture of isomers) [6-034] | 3 (Herbicidal ratio of 40% or higher and lower than 70%) | 5 (Herbicidal ratio of 90% or more (almost completely withered)) | 4 (Herbicidal ratio of 70% or higher and lower than 90%) | 3 (Herbicidal ratio of 40% or higher and lower than 70%) | 5 (Herbicidal ratio of 90% or more (almost completely withered)) | 5 (Herbicidal ratio of 90% or more (almost completely withered)) | 5 (Herbicidal ratio of 90% or more (almost completely withered)) | 1 (Herbicidal ratio of 5% or higher and lower than 20%) | 5 (Herbicidal ratio of 90% or more (almost completely withered)) | 1 (Herbicidal ratio of 5% or higher and lower than 20%) | 0 (Herbicidal ratio of 5% or lower (almost no effect)) | 0 (Herbicidal ratio of 5% or lower (almost no effect)) | 
4 | CON=C(C)CC1CC(OC(=O)c2ccc(C(F)(F)F)cc2)=C(c2c(C)cc(C)cc2C)C1=O (stereo not shown) [1-149] |  |  |  | 3 (Herbicidal ratio of 40% or higher and lower than 70%) | 5 (Herbicidal ratio of 90% or more (almost completely withered)) |  |  |  |  |  |  |  | R: Veronica persica, herbicidal effect (criteria 0-5) (Veronica persica [1]): 2 (Herbicidal ratio of 20% or higher and lower than 40%); b: directly sowed rice plant, effect on crop (criteria 0-5) (rice plant): 5 (Herbicidal ratio of 90% or more (almost completely withered)); R: Veronica persica, herbicidal effect grade (Veronica persica [2]; 320 g/ha): 0 (Herbicidal ratio of 5% or lower (almost no effect)); F: Digitaria ciliaris, herbicidal effect (criteria 0-5) (Digitaria ciliaris): 5 (Herbicidal ratio of 90% or more (almost completely withered)); Q: Galium spurium, herbicidal effect (criteria 0-5) (Galium spurium): 3 (Herbicidal ratio of 40% or higher and lower than 70%); I: Avena fatua, herbicidal effect grade (Avena fatua; 320 g/ha): 0 (Herbicidal ratio of 5% or lower (almost no effect)); L: Apera spica-venti, herbicidal effect grade (Apera spica-venti; 320 g/ha): 5 (Herbicidal ratio of 90% or more (almost completely withered)); g: rapeseed, effect grade on crop (rapeseed; 320 g/ha): 4 (Herbicidal ratio of 70% or higher and lower than 90%); P: Stellaria media, herbicidal effect grade (Stellaria media; 320 g/ha): 0 (Herbicidal ratio of 5% or lower (almost no effect)); e: wheat, effect grade on crop (wheat; 320 g/ha): 5 (Herbicidal ratio of 90% or more (almost completely withered))
5 | CCOC(=O)C(C(=O)Cc1ccccc1)C1CC(O)=C(c2c(C)cc(C)cc2C)C1=O (stereo not shown) [2-011] | 0 (Herbicidal ratio of 5% or lower (almost no effect)) | 3 (Herbicidal ratio of 40% or higher and lower than 70%) | 0 (Herbicidal ratio of 5% or lower (almost no effect)) | 0 (Herbicidal ratio of 5% or lower (almost no effect)) | 0 (Herbicidal ratio of 5% or lower (almost no effect)) | 0 (Herbicidal ratio of 5% or lower (almost no effect)) | 0 (Herbicidal ratio of 5% or lower (almost no effect)) | 0 (Herbicidal ratio of 5% or lower (almost no effect)) | 0 (Herbicidal ratio of 5% or lower (almost no effect)) | 0 (Herbicidal ratio of 5% or lower (almost no effect)) | 0 (Herbicidal ratio of 5% or lower (almost no effect)) | 0 (Herbicidal ratio of 5% or lower (almost no effect)) | 
6 | CCOC(=O)C(CC)(C(C)=O)C1CC(O)=C(c2c(C)cc(C)cc2C)C1=O (stereo not shown) [2-012] | 0 (Herbicidal ratio of 5% or lower (almost no effect)) | 4 (Herbicidal ratio of 70% or higher and lower than 90%) | 0 (Herbicidal ratio of 5% or lower (almost no effect)) | 0 (Herbicidal ratio of 5% or lower (almost no effect)) | 0 (Herbicidal ratio of 5% or lower (almost no effect)) | 0 (Herbicidal ratio of 5% or lower (almost no effect)) | 0 (Herbicidal ratio of 5% or lower (almost no effect)) | 0 (Herbicidal ratio of 5% or lower (almost no effect)) | 0 (Herbicidal ratio of 5% or lower (almost no effect)) | 0 (Herbicidal ratio of 5% or lower (almost no effect)) | 0 (Herbicidal ratio of 5% or lower (almost no effect)) | 0 (Herbicidal ratio of 5% or lower (almost no effect)) | 
7 | CON=C(C)CC1CC(O)=C(c2c(C)cc(C(=O)OC)cc2C)C1=O (stereo not shown) [6-023] | 1 (Herbicidal ratio of 5% or higher and lower than 20%) | 5 (Herbicidal ratio of 90% or more (almost completely withered)) | 0 (Herbicidal ratio of 5% or lower (almost no effect)) |  | 5 (Herbicidal ratio of 90% or more (almost completely withered)) | 5 (Herbicidal ratio of 90% or more (almost completely withered)) | 0 (Herbicidal ratio of 5% or lower (almost no effect)) | 0 (Herbicidal ratio of 5% or lower (almost no effect)) | 4 (Herbicidal ratio of 70% or higher and lower than 90%) | 3 (Herbicidal ratio of 40% or higher and lower than 70%) | 0 (Herbicidal ratio of 5% or lower (almost no effect)) | 0 (Herbicidal ratio of 5% or lower (almost no effect)) | 
